Where “and” joins values, the source holds several entries; their conditions need not be identical. Equal entries are not always repeated.
Experiments:
Assay in all cases: biochemical
[1] = target: AURKB (Homo sapiens, UniProt Q96GD4)
[2] = target: T1, CHUK (Homo sapiens, UniProt O15111)
T1 sequence (O15111 1-745): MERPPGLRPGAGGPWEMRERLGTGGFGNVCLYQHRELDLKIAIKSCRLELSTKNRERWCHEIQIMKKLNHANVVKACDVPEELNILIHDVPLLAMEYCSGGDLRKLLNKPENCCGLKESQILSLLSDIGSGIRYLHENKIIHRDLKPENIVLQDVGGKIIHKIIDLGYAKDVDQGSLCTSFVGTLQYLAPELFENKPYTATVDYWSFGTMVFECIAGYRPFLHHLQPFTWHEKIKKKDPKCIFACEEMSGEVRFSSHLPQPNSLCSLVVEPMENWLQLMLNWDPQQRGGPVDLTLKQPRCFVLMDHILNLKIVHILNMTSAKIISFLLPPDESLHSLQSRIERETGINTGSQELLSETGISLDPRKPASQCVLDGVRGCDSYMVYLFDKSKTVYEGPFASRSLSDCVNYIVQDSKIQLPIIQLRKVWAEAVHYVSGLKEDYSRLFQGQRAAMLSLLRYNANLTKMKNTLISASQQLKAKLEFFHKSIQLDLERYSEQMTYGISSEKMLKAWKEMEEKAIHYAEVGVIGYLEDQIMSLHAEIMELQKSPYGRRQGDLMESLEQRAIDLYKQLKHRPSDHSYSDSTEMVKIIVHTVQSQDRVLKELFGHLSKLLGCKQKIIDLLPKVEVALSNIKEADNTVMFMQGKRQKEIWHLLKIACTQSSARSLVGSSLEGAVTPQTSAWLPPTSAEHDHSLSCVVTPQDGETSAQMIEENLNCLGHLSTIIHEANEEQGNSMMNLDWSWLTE

[3] = target: EIF2AK4 (Homo sapiens, UniProt Q9P2K8)
[4] = target: LIMK1 (Homo sapiens, UniProt P53667)
[5] = target: T2, NEK1 (Homo sapiens, UniProt Q96PY6)
T2 sequence (Q96PY6 1-1258): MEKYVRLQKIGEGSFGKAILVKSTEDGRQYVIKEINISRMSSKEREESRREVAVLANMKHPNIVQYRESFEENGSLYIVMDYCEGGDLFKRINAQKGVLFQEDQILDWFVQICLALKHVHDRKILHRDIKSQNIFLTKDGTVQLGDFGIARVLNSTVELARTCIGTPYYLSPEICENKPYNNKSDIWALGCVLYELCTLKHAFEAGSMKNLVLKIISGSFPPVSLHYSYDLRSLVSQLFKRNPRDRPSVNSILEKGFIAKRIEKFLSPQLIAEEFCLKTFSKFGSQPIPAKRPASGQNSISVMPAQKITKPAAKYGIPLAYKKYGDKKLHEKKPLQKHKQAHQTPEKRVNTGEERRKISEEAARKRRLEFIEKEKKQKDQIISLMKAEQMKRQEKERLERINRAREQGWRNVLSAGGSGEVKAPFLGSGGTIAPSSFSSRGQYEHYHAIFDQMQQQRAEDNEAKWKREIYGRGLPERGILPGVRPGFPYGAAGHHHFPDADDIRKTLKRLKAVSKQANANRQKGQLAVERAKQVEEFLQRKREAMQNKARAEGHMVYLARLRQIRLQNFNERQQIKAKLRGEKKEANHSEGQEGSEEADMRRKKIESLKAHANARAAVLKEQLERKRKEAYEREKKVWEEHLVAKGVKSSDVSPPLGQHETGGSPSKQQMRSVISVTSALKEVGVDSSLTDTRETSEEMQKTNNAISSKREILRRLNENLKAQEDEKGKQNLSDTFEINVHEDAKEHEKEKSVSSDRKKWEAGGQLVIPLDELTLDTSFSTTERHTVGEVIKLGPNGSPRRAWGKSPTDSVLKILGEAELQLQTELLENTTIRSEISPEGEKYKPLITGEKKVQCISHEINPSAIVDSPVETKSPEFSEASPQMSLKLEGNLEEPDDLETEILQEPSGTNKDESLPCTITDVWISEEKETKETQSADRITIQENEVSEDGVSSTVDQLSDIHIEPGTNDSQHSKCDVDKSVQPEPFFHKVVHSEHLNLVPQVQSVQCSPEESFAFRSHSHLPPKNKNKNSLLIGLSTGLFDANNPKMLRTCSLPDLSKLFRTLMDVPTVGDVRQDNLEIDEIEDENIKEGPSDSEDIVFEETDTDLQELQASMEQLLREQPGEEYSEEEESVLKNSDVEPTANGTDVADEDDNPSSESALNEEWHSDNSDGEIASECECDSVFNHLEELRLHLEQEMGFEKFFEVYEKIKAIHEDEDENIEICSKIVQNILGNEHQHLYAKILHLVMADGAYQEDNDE

[6] = target: T3, TTK (Homo sapiens, UniProt P33981)
T3 sequence (P33981 1-857): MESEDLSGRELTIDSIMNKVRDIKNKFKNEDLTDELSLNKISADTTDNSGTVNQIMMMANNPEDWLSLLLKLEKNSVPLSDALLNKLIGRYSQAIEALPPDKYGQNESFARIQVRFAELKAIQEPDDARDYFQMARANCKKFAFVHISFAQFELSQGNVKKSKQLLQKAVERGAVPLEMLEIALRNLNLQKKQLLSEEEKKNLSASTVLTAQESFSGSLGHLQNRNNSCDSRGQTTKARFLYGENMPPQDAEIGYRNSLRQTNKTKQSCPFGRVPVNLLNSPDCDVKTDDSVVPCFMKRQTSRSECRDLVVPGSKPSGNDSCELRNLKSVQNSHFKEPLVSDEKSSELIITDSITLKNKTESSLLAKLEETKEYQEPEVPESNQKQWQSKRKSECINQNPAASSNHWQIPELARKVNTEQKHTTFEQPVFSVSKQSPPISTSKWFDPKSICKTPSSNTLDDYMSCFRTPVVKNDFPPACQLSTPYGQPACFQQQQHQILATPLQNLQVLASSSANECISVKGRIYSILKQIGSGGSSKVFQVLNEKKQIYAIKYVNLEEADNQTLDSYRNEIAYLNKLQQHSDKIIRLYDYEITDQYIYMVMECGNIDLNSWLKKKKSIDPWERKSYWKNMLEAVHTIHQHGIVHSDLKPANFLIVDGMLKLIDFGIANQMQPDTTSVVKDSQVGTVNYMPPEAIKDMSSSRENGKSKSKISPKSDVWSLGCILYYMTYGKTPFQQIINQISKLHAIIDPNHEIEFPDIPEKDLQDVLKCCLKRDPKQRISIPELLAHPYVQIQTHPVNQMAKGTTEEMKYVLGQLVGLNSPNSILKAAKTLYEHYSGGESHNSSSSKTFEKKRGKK

AURKB, sequence (Q96GD4 whole entry): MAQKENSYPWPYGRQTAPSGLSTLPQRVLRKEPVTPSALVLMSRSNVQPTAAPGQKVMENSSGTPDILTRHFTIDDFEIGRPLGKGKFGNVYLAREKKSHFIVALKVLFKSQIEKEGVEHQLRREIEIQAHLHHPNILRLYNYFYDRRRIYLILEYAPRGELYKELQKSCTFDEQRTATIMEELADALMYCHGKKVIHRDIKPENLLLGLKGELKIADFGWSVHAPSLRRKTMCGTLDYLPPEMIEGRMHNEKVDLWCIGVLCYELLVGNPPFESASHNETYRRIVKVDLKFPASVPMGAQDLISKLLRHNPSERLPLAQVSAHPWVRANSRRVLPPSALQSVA
EIF2AK4, sequence (Q9P2K8 whole entry): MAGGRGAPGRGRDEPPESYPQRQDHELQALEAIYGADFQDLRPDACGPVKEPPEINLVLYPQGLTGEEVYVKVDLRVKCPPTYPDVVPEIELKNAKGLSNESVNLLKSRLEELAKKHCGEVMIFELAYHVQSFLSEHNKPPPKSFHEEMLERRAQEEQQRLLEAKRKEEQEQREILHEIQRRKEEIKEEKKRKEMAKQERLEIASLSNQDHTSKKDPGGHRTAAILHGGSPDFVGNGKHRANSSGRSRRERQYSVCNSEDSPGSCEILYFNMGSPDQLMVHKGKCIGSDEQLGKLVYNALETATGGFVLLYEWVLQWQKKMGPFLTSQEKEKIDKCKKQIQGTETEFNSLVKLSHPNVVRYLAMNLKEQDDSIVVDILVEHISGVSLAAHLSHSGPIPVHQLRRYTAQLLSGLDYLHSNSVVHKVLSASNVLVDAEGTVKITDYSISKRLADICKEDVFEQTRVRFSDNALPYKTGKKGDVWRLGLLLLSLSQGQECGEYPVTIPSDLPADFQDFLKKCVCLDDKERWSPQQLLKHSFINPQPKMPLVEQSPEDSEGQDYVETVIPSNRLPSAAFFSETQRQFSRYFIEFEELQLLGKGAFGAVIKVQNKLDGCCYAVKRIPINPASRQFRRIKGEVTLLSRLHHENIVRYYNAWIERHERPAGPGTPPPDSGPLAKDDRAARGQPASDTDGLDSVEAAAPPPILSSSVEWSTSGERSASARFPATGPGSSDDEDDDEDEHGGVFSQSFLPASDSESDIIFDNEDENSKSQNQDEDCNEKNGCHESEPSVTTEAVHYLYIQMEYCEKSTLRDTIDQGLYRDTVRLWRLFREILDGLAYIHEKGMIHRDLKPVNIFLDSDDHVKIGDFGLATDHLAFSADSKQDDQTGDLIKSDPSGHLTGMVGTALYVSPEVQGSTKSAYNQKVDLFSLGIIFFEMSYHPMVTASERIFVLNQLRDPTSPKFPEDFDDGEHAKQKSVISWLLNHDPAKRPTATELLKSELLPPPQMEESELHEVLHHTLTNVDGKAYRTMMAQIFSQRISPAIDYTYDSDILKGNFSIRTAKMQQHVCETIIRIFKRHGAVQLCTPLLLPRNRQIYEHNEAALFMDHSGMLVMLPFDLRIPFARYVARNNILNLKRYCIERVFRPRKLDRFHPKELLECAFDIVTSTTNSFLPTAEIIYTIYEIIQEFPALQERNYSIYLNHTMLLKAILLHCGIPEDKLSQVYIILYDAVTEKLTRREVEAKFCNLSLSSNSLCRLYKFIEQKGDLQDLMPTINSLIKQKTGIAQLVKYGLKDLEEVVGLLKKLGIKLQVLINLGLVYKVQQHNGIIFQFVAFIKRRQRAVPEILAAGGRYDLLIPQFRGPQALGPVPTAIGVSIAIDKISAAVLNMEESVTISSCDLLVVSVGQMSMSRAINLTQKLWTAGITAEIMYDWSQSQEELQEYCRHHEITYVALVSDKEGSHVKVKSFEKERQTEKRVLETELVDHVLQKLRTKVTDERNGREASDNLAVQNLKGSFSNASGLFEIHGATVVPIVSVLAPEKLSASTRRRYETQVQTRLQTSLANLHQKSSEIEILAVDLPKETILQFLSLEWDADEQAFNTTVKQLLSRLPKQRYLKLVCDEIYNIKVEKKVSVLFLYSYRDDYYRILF
LIMK1, sequence (P53667 whole entry): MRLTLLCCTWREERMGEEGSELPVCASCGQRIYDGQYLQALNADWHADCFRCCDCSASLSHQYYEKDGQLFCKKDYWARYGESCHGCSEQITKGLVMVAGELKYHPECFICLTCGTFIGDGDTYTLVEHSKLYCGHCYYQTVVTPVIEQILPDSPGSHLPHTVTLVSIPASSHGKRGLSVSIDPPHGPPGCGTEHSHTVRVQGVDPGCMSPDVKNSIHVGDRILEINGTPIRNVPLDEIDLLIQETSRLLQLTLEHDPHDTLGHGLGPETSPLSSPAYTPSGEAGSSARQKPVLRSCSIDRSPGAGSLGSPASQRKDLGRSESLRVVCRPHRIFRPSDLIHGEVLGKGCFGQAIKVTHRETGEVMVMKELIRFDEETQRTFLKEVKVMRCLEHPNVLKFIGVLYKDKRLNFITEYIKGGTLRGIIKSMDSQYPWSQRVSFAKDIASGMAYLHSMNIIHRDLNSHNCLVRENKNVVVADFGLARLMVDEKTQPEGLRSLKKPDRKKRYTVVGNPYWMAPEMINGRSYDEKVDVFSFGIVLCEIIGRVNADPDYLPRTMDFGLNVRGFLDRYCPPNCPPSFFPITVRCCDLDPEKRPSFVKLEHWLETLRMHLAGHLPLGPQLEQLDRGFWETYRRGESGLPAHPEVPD

Compound | IC50 [1] | IC50 [2] [µM] | IC50 [3] | IC50 [4] [µM] | IC50 [5] | IC50 [6]
CN(C)CC(O)COc1ccc(Nc2ncc([N+](=O)[O-])c(Nc3ccccc3O)n2)cc1.O=C(O)C(F)(F)F (stereo not drawn) [TCMDC-141399] | 4200 nM | > 20 | 260 nM and 350 nM | > 20 | 6400 nM | > 20000 nM
Cl.NCC1(c2nc(-c3ccc(Cl)c(O)c3)c(-c3ccncc3)[nH]2)CCCCC1 [TCMDC-141154] | > 20000 nM | > 20 | > 20000 nM | > 20 | > 20000 nM | > 20000 nM
CN1CCN(c2ccc(Nc3ncc(C#N)c(Nc4ccccc4C(N)=O)n3)cc2)CC1.Cl [TCMDC-134116] | 40 nM and 64 nM | > 20 | 240 nM and 210 nM | 0.22 | 570 nM and 470 nM | 540 nM and 440 nM
